Test results from patent publication US20240041042A1, “1-(PYRIDYL)-5-AZINYLPYRAZOLE DERIVATIVES, AND THEIR USE FOR CONTROL OF UNDESIRED PLANT GROWTH” (Bayer Aktiengesellschaft, priority 2020, published 2024).
Read-outs that look alike come from different tables or passages of the source.

Assays:
Format in all cases: in vivo
[1] = system: Verconica persica (VERPE); experiment: Post-emergence herbicidal action against VERPE
Procedure, shortened: (§1)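 Values are percent visual activity (0% like control, 100% plants dead) after about 3 weeks in the greenhouse. Treatment: post-emergence spray at one-leaf stage, 600 l/ha spray volume, 0.5% additive, doses 320 g/ha or lower.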

[2] = system: Triticum aestivum (TRZAS); conditions: crop plant compatibility, effect vs untreated controls
Procedure, shortened: (§2)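 Effects were read visually as % versus untreated controls (0% = no effect, 100% = death) about 3 weeks post-treatment. Application was a post-emergence spray at the one-leaf stage of WP/EC formulations with 0.5% additive at 600 l/ha. Different dosages are denoted a, b and c.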

Oryza sativa (ORYSA) = conditions: crop plant compatibility
Procedure, shortened: as §2

Zea mays (ZEAMX) = conditions: for Post-emergence action against ZEAMX in % (crop plant compatibility): 20 g/ha, effect in comparison to untreated controls; for Post-emergence action against ZEAMX in %: crop plant compatibility, 80 g/ha, effect vs untreated controls
Procedure, shortened: as §2

Lolium rigidum (LOLRI) = experiment: Post-emergence herbicidal action against LOLRI
Procedure, shortened: as §1

Setaria viridis (SETVI) [3] = experiment: Post-emergence herbicidal action against SETVI; conditions: dosage 320 g/ha
Procedure, shortened: as §1

[4] = system: Digitaria sanguinalis (DIGSA); experiment: Post-emergence herbicidal action against DIGSA; conditions: 320 g/ha, visual rating about 3 weeks after treatment
Procedure, shortened: as §1

[5] = system: Alopecurus myosuroides (ALOMY); experiment: Post-emergence herbicidal action against ALOMY; conditions: 320 g/ha, visual rating about 3 weeks after treatment vs untreated controls (100% = plants have died, 0% = like control plants)
Procedure, shortened: as §1

[6] = system: Echinochloa crus-galli (ECHCG); experiment: Post-emergence herbicidal action against ECHCG
Procedure, shortened: as §1

[7] = system: Polygonum convolvulus (POLCO); experiment: Pre-emergence herbicidal action against POLCO; conditions: dosage 320 g/ha
Procedure, shortened: (§3)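 Read-out is visual percent damage relative to untreated pots, with 100% meaning dead plants and 0% meaning no difference, assessed roughly three weeks after treatment. Compounds were applied pre-emergence to the covering soil at up to 320 g/ha.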

[8] = system: Abutilon theophrasti (ABUTH); experiment: Post-emergence herbicidal action against ABUTH; conditions: 320 g/ha, visual rating about 3 weeks after treatment vs untreated controls (100% = plants have died, 0% = like control plants)
Procedure, shortened: as §1

Setaria viridis (SETVI) [9] = experiment: Pre-emergence herbicidal action against SETVI; conditions: dosage 320 g/ha
Procedure, shortened: as §3

[10] = system: Echinochloa crus-galli (ECHCG); experiment: Pre-emergence herbicidal action against ECHCG; conditions: dosage 320 g/ha
Procedure, shortened: as §3

[11] = system: Alopecurus myosuroides (ALOMY); experiment: Pre-emergence herbicidal action against ALOMY; conditions: 320 g/ha; scored visually after about 3 weeks; 100% = plants have died
Procedure, shortened: as §3

[12] = system: Polygonum convolvulus (POLCO); experiment: Post-emergence herbicidal action against POLCO; conditions: dosage 320 g/ha
Procedure, shortened: as §1

Avena fatua (AVEFA) [13] = experiment: Post-emergence herbicidal action against AVEFA; conditions: 320 g/ha, visual rating about 3 weeks after treatment
Procedure, shortened: as §1

Viola tricolor (VIOTR) [14] = experiment: Pre-emergence herbicidal action against VIOTR
Procedure, shortened: as §3

[15] = system: Verconica persica (VERPE); experiment: Pre-emergence herbicidal action against VERPE
Procedure, shortened: as §3

Avena fatua (AVEFA) [16] = experiment: Pre-emergence herbicidal action against AVEFA; conditions: 320 g/ha, visual scoring after about 3 weeks vs untreated controls
Procedure, shortened: as §3

[17] = system: Amaranthus retroflexus (AMARE); experiment: Pre-emergence herbicidal action against AMARE; conditions: 320 g/ha, visual scoring after about 3 weeks vs untreated controls
Procedure, shortened: as §3

[18] = system: Pharbitis purpurea (PHBPU); experiment: Pre-emergence herbicidal action against PHBPU; conditions: dosage 320 g/ha
Procedure, shortened: as §3

[19] = system: Amaranthus retroflexus (AMARE); experiment: Post-emergence herbicidal action against AMARE; conditions: 320 g/ha, visual rating about 3 weeks after treatment
Procedure, shortened: as §1

Viola tricolor (VIOTR) [20] = experiment: Post-emergence herbicidal action against VIOTR
Procedure, shortened: as §1

[21] = system: Pharbitis purpurea (PHBPU); experiment: Post-emergence herbicidal action against PHBPU
Procedure, shortened: as §1

[22] = system: Matricaria inodora (MATIN); experiment: Post-emergence herbicidal action against MATIN; conditions: dosage 320 g/ha
Procedure, shortened: as §1

[23] = 20 g/ha, effect vs untreated controls
[24] = 80 g/ha, effect in comparison to untreated controls
[25] = 320 g/ha, effect in comparison to untreated controls

| Compound | Post-emergence action against VERPE in % ([1]; 320 g/ha, VERPE) [%] | Post-emergence action against VERPE in % ([1]; dosage 80 g/ha) [%] | Post-emergence action against TRZAS in % ([2]; 20 g/ha) [%] | Post-emergence action against ORYSA in % (Oryza sativa (ORYSA); [23]) [%] | Post-emergence action against ORYSA in % (Oryza sativa (ORYSA); [24]) [%] | Post-emergence action against ZEAMX in % (crop plant compatibility) (Zea mays (ZEAMX)) [%] | Post-emergence action against SETVI in % (Setaria viridis (SETVI) [3]) [%] | Post-emergence action against DIGSA in % [4] [%] | Post-emergence action against ALOMY in % [5] [%] | Post-emergence action against ECHCG in % ([6]; dosage 320 g/ha) [%] | Post-emergence action against ABUTH in % [8] [%] | Post-emergence action against TRZAS in % ([2]; 80 g/ha) [%] | Post-emergence action against ORYSA in % (Oryza sativa (ORYSA); [25]) [%] | Post-emergence action against ZEAMX in % (Zea mays (ZEAMX)) [%] | Post-emergence action against POLCO in % [12] [%] | Post-emergence action against AMARE in % [19] [%] | Post-emergence action against VIOTR in % (Viola tricolor (VIOTR) [20]; 80 g/ha) [%] | Post-emergence action against VIOTR in % (Viola tricolor (VIOTR) [20]; 320 g/ha) [%] | other results |
| --- | --- | --- | --- | --- | --- | --- | --- | --- | --- | --- | --- | --- | --- | --- | --- | --- | --- | --- | --- |
| COC(=O)[C@@H](C)Oc1nn(-c2ncccc2F)c(-c2ccnc(F)c2)c1Br [Example I-134] | 80 | 80 | 20 | 0 | 10 | 10 | 80 | 80 | 90 | 80 |  |  |  |  |  |  |  |  | Post-emergence action against LOLRI in % (Lolium rigidum (LOLRI); dosage 80 g/ha): 80%; Post-emergence action against LOLRI in % (Lolium rigidum (LOLRI); dosage 320 g/ha): 90% |
| O=C(O)COc1nn(-c2ncccc2C(F)(F)F)c(-c2cncc(F)c2)c1I [Example I-186] | 80 |  |  |  | 10 |  |  |  |  | 90 | 80 | 10 | 20 | 20 | 80 |  |  |  | Pre-emergence action against POLCO in % [7]: 80%; Pre-emergence action against SETVI in % (Setaria viridis (SETVI) [9]): 80%; Pre-emergence action against ECHCG in % [10]: 80%; Pre-emergence action against ALOMY [11]: 90%; Post-emergence action against AVEFA in % (Avena fatua (AVEFA) [13]): 80%; Pre-emergence action against VIOTR in % (Viola tricolor (VIOTR) [14]; 320 g/ha, Viola tricolor): 90%; Pre-emergence action against VIOTR in % (Viola tricolor (VIOTR) [14]; dosage 80 g/ha): 80%; Pre-emergence action against VERPE in % ([15]; dosage 80 g/ha): 90%; Pre-emergence action against VERPE in % ([15]; dosage 320 g/ha): 90%; Pre-emergence action against AVEFA in % (Avena fatua (AVEFA) [16]): 80%; Pre-emergence action against AMARE in % [17]: 90%; Post-emergence action against ECHCG in % ([6]; dosage 80 g/ha): 80%; Pre-emergence action against PHBPU in % [18]: 90% |
| C=Cc1c(OCC(=O)OCC)nn(-c2ccccn2)c1-c1ccc(F)nc1 [Example I-273] | 90 | 80 | 0 |  |  |  |  |  |  | 90 | 80 |  |  |  | 80 | 80 | 90 | 90 | Post-emergence action against PHBPU in % ([21]; dosage 80 g/ha): 80%; Post-emergence action against PHBPU in % ([21]; dosage 320 g/ha): 90%; Post-emergence action against MATIN in % [22]: 80% |
| COC(=O)C(C)NC(=O)C(C)Oc1nn(-c2ccccn2)c(-c2ccc(F)nc2)c1Br (stereo not drawn) [Example I-286] |  |  | 20 | 10 | 20 | 10 | 80 | 90 |  | 80 |  |  | 20 | 20 |  |  |  | 80 |  |
| COC(=O)COc1nn(-c2cccnc2C)c(-c2cncc(F)c2)c1Cl [II-44] | 90 | 80 | 20 | 0 | 0 | 0 | 90 | 80 | 100 | 90 | 80 | 20 |  | 0 | 90 | 90 | 80 | 90 |  |
